Literature values as cited in patent US7723019B2, “Organic cation transporter preferentially expressed in hematopoietic cells and leukemias and uses thereof” (University of Kentucky Research Foundation, priority 2003, dated 2010).
Where “and” joins values, the source holds several entries; their conditions need not be identical. Equal entries are not always repeated. Where two headings read alike, the source gives them in different places.

Tests used:
[1] = molecular target: T1, OCTN1 (SLC22A4) (Homo sapiens, UniProt Q9H015); conditions: OCTN1, cell type Fibroblasts
T1 sequence (Q9H015 1-551): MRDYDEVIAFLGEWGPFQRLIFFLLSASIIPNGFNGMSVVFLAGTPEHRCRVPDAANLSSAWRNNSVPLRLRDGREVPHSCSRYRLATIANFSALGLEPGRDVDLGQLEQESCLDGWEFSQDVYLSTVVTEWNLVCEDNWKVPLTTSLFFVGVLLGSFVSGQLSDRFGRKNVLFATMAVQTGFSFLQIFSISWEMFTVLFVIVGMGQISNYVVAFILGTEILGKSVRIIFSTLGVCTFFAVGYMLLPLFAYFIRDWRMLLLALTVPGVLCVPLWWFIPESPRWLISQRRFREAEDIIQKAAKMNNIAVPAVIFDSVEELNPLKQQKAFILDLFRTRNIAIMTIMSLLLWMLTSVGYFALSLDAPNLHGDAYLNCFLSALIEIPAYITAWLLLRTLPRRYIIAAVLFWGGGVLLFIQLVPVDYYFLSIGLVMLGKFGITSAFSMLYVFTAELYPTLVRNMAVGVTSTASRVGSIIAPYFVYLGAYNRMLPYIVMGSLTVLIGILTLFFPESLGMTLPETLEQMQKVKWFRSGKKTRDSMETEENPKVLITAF

[2] = molecular target: T2, OCTN2 (SLC22A5) (Homo sapiens, UniProt O76082)
T2 sequence (O76082 1-557): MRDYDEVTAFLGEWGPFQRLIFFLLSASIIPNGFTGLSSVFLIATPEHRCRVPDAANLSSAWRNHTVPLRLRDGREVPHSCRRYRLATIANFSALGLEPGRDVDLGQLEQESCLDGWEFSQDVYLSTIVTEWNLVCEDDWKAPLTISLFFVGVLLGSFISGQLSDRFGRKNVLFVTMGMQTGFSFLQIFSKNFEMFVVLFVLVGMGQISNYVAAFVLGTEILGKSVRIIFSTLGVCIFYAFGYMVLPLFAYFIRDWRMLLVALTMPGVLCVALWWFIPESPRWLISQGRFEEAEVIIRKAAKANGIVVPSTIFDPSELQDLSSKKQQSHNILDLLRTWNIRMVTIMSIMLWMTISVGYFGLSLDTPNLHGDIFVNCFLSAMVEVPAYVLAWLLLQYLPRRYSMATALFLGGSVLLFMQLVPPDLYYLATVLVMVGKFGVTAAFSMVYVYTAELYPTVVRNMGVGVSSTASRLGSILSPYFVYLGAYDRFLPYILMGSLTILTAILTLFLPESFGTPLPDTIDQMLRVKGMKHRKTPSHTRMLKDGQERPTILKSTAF

[3] = molecular target: T3, OCT2 (SLC22A2) (Homo sapiens, UniProt O15244)
T3 sequence (O15244 1-555): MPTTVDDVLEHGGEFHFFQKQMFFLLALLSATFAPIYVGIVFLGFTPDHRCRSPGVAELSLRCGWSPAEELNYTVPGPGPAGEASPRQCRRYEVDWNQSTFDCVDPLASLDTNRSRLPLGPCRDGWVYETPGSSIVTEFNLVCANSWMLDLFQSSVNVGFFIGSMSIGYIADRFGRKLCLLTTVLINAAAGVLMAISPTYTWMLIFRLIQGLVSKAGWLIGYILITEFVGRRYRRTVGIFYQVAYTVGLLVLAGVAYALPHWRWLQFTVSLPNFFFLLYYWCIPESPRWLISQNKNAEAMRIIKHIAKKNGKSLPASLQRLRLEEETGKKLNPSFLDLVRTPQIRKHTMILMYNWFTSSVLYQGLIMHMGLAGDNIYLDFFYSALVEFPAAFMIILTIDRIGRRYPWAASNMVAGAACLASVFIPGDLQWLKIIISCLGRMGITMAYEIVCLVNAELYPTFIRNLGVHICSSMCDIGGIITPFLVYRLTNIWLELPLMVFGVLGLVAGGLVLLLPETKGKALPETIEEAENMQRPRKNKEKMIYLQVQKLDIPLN

[4] = tested on: OCT3 (SLC22A3)
[5] = tested on: RFC1-transfected MTX^R ZR75 cell line; conditions: RFC1 transfection into transport-deficient MTX^R ZR75 cells, relative to control cell clones
[6] = tested on: reduced folate carrier (RFC); conditions: read-out: Km for MTX, approximately
[7] = molecular target: T4, OCT1 (SLC22A1) (Homo sapiens, UniProt O15245); conditions: OCT1, cell type Xenopus
T4 construct: host or cells: HeLa; Xenopus
T4 sequence (O15245 1-554): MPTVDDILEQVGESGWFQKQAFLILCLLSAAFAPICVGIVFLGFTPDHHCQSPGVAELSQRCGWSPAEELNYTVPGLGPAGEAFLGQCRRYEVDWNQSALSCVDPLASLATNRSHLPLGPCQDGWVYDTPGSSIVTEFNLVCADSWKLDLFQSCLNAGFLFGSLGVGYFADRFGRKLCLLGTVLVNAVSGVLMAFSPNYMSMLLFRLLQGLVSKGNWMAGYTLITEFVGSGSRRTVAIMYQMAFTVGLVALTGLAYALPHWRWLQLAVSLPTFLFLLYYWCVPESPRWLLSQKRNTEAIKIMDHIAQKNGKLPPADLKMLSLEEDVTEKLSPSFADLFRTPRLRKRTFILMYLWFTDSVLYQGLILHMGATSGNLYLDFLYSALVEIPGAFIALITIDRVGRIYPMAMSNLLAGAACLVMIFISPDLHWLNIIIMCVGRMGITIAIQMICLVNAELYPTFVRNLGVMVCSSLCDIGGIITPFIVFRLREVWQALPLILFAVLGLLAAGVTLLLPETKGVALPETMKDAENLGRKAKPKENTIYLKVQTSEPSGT

For `C[N+](C)(C)C[C@H](O)CC(=O)[O-]` [L-Carnitine], the KT [1] is listed as 6.6 µM, the KT ([2]; OCTN2, cell type HEK293) is listed as 4.34 µM and 4.3 µM and the KT ([2]; OCTN2, cell type JAR) is listed as 3.5 µM. For the same compound, the KT ([2]; OCTN2, cell type Xenopus) was 4.8 µM.

For `CC12CC3CC(C)(C1)CC(N)(C3)C2` [Memantine], the KT ([3]; OCT2, cell type Xenopus) is given as 34 µM.

For `CC[N+](CC)(CC)CC` [TEA, tetraethylammonium], the KT ([4]; OCT3, cell type HeLa) is listed as 2500 µM.

In the case of `NC[C@H](O)c1ccc(O)c(O)c1` [Norepinephrine], the KT ([3]; OCT2, cell type Xenopus) is given as 1900 µM.

For `CC(=O)O[C@H](CC(=O)[O-])C[N+](C)(C)C` [Acetyl-L-carnitine], the KT ([2]; OCTN2, cell type HEK293) is given as 8.5 µM.

In the case of `CN(Cc1cnc2nc(N)nc(N)c2n1)c1ccc(C(=O)N[C@@H](CCC(=O)O)C(=O)O)cc1` [MTX, Methotrexate], the “increase in 6-hour MTX uptake” value [5] is listed as 20 fold, the “increase in sensitivity to MTX” value [5] is listed as 250 fold and the Km [6] is listed as 0.8 to 26 µM.

In the case of `C[n+]1ccc(-c2ccccc2)cc1` [MPP, 1-methyl-4-phenylpyridinium], the KT [7] is listed as 14.6 µM, the KT ([3]; OCT2, cell type HEK293) is listed as 16 µM and the KT ([4]; OCT3, cell type HRPE) is listed as 47 µM.

In the case of `NCCc1c[nH]cn1` [Histamine], the KT ([3]; OCT2, cell type Xenopus) is given as 1300 µM.

For `NCCc1ccc(O)c(O)c1` [Dopamine], the KT ([3]; OCT2, cell type HEK293) is given as 330 µM and the KT ([3]; OCT2, cell type Xenopus) is given as 390 µM.

In the case of `NCCc1c[nH]c2ccc(O)cc12` [Serotonin], the KT ([3]; OCT2, cell type Xenopus) is listed as 80 µM.

In the case of `C[N+](C)(C)C[C@@H](O)CC(=O)[O-]` [D-Carnitine], the KT ([2]; OCTN2, cell type HEK293) is given as 10.9 µM and the KT ([2]; OCTN2, cell type Xenopus) is given as 98 µM.

For `NC12CC3CC(CC(C3)C1)C2` [Amantadine], the KT ([3]; OCT2, cell type Xenopus) is given as 27 µM.
